The supplement of paper PMC4862054

What was measured:
Conditions in all cases: incubation time: 72 h
BT-474 [1] = assay: normalised response (% of control), CellTox Green; higher = less cell death (100 = DMSO, 0 = benzethonium chloride kill control)
Method in brief: (§1)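 Values are normalised signals, each belonging to one concentration of the series. Breast cancer cells (20 µl suspension) were seeded into 384-well plates with compound at 5 concentrations in 10-fold steps over a compound-specific 10,000-fold range and incubated 72 h. Readouts were CellTox Green fluorescence (485/520 nm), then CellTiter-Glo luminescence after 10 min at room temperature, with each plate set to 0.1 % DMSO as 100 and a positive kill control as 0.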

BT-549 [2] = assay: as above
Method in brief: as §1

CAL-120 [3] = assay: as above
Method in brief: as §1

CAL-148 [4] = assay: as above
Method in brief: as §1

CAL-51 [5] = assay: as above
Method in brief: as §1

CAL-85-1 [6] = assay: as above
Method in brief: as §1

DU-4475 [7] = assay: as above
Method in brief: as §1

HCC1143 [8] = assay: as above
Method in brief: as §1

HCC1599 [9] = assay: as above
Method in brief: as §1

HCC1937 [10] = assay: as above
Method in brief: as §1

HDQ-P1 [11] = assay: as above
Method in brief: as §1

Hs578T [12] = assay: as above
Method in brief: as §1

MCF-10A [13] = assay: as above
Method in brief: as §1

MDA-MB-231 [14] = assay: as above
Method in brief: as §1

MDA-MB-436 [15] = assay: as above
Method in brief: as §1

MDA-MB-453 [16] = assay: as above
Method in brief: as §1

MDA-MB-468 [17] = assay: as above
Method in brief: as §1

MFM-223 [18] = assay: as above
Method in brief: as §1

BT-474 [19] = assay: normalised response (% of control), CellTiter-Glo; higher = more viable cells (100 = DMSO, 0 = benzethonium chloride kill control)
Method in brief: as §1

BT-549 [20] = assay: as above
Method in brief: as §1

CAL-120 [21] = assay: as above
Method in brief: as §1

CAL-148 [22] = assay: as above
Method in brief: as §1

CAL-51 [23] = assay: as above
Method in brief: as §1

CAL-85-1 [24] = assay: as above
Method in brief: as §1

DU-4475 [25] = assay: as above
Method in brief: as §1

HCC1143 [26] = assay: as above
Method in brief: as §1

HCC1599 [27] = assay: as above
Method in brief: as §1

HCC1937 [28] = assay: as above
Method in brief: as §1

HDQ-P1 [29] = assay: as above
Method in brief: as §1

Hs578T [30] = assay: as above
Method in brief: as §1

MCF-10A [31] = assay: as above
Method in brief: as §1

MDA-MB-231 [32] = assay: as above
Method in brief: as §1

MDA-MB-436 [33] = assay: as above
Method in brief: as §1

MDA-MB-453 [34] = assay: as above
Method in brief: as §1

MDA-MB-468 [35] = assay: as above
Method in brief: as §1

MFM-223 [36] = assay: as above
Method in brief: as §1

SK-BR-3 = assay: as above
Method in brief: as §1

| SMILES | normalised response (BT-474 [1]) [%] | normalised response (BT-549 [2]) [%] | normalised response (CAL-120 [3]) [%] | normalised response (CAL-148 [4]) [%] | normalised response (CAL-51 [5]) [%] | normalised response (CAL-85-1 [6]) [%] | normalised response (DU-4475 [7]) [%] | normalised response (HCC1143 [8]) [%] | normalised response (HCC1599 [9]) [%] | normalised response (HCC1937 [10]) [%] | normalised response (HDQ-P1 [11]) [%] | normalised response (Hs578T [12]) [%] | normalised response (MCF-10A [13]) [%] | normalised response (MDA-MB-231 [14]) [%] | normalised response (MDA-MB-436 [15]) [%] | normalised response (MDA-MB-453 [16]) [%] | normalised response (MDA-MB-468 [17]) [%] | normalised response (MFM-223 [18]) [%] | normalised response (BT-474 [19]) [%] | normalised response (BT-549 [20]) [%] | normalised response (CAL-120 [21]) [%] | normalised response (CAL-148 [22]) [%] | normalised response (CAL-51 [23]) [%] | normalised response (CAL-85-1 [24]) [%] | normalised response (DU-4475 [25]) [%] | normalised response (HCC1143 [26]) [%] | normalised response (HCC1599 [27]) [%] | normalised response (HCC1937 [28]) [%] | normalised response (HDQ-P1 [29]) [%] | normalised response (Hs578T [30]) [%] | normalised response (MCF-10A [31]) [%] | normalised response (MDA-MB-231 [32]) [%] | normalised response (MDA-MB-436 [33]) [%] | normalised response (MDA-MB-453 [34]) [%] | normalised response (MDA-MB-468 [35]) [%] | normalised response (MFM-223 [36]) [%] | normalised response (SK-BR-3) [%] |
| --- | --- | --- | --- | --- | --- | --- | --- | --- | --- | --- | --- | --- | --- | --- | --- | --- | --- | --- | --- | --- | --- | --- | --- | --- | --- | --- | --- | --- | --- | --- | --- | --- | --- | --- | --- | --- | --- |
| CC1=C(/C=C/C(C)=C/C=C/C(C)=C/C(=O)O)C(C)(C)CCC1 [Tretinoin] (10000 nM) | 68.7 | 76.9 | 101 | 102 | 98.5 | 55.4 | 98 | 84.1 | 102 | 61.1 | 80.3 | 75.1 | 73.5 | 36.8 | 88.9 | 94.4 | 127 | 103 | 62.2 | 62.2 | 98.2 | 75 | 86.2 | 56.5 | 89.9 | 84.7 | 61.6 | 72.3 | 90 | 72.9 | 60.7 | 63.5 | 79.2 | 56.4 | 81 | 78.9 | 21.8 |
| COc1cc2c(NC3CCN(C(C)C)CC3)nc(C3CCCCC3)nc2cc1OCCCN1CCCC1 [UNC0638] (10000 nM) | -17.5 | 17 | -29.4 | 2.74 | -16.4 | -10.2 | 88.3 | 94.9 | 62.2 | -27 | 58.6 | 13.9 | -76.4 | -58.7 | 18.6 | -11.5 | -186 | 36.8 | 2.59 | 1.52 | 8.51 | 3.47 | 17 | 0.26 | 71.8 | 36.4 | 14 | 13.6 | 23.3 | 51.9 | 0.31 | 0.6 | 7.47 | 0.34 | 0.31 | 3.95 | 2.89 |
| Oc1ncc(N(CCCl)CCCl)c(O)n1 [Uracil mustard] (10000 nM) | 107 | 94.2 | 107 | 104 | 97.5 | 95.4 | 100 | 115 | 99.1 | 98.4 | 83.4 | 135 | 123 | 101 | 97.6 | 98 | 133 | 100 | 99.5 | 97.9 | 107 | 107 | 78.5 | 103 | 99.4 | 105 | 115 | 98.9 | 98.1 | 98.3 | 101 | 95.6 | 99.1 | 89.4 | 101 | 104 | 100 |
| CCCCC(=O)OCC(=O)[C@]1(O)Cc2c(O)c3c(c(O)c2[C@@H](O[C@H]2C[C@H](NC(=O)C(F)(F)F)[C@H](O)[C@H](C)O2)C1)C(=O)c1c(OC)cccc1C3=O [Valrubicin] (5000 nM) | 112 | 208 | 128 | 119 | 106 | 170 | 147 | 176 | 196 | 183 | 134 | 193 | 157 | 205 | 147 | 150 | 548 | 118 | 40.1 | 13.4 | 59.3 | 0.81 | 0.2 | 37 | 0.06 | 19.9 | 24.8 | 50.2 | 45.4 | 34.1 | 9.91 | 47.7 | 35.4 | 22.1 | 22.8 | 40.8 | 8.77 |
